According to paper PMC10258898, “Discovery of Novel Hydroxyimine-Tethered Benzenesulfonamides as Potential Human Carbonic Anhydrase IX/XII Inhibitors” (ACS Medicinal Chemistry Letters, 2023):
Where two headings read alike, the source gives them in different places.

How the values were obtained:
hCA IX = hCA IX (Homo sapiens, UniProt Q16790); experiment: Stopped-flow CO2 hydrase assay, hCA IX inhibition
Description: (§1) as indicator, working at the absorbance maximum of 557 nm, with 20 mM Hepes (pH 7.5) as
(§2) buffer, and 20 mM Na2SO4 (for maintaining constant the ionic strength), following the initial
(§3) have been used for determining the initial velocity. The uncatalyzed rates were determined in
(§4) the same manner and subtracted from the total observed rates. Stock solutions of inhibitor
(§5) (0.1 mM) were prepared in distilled−deionized water and dilutions up to 0.01 nM were done
(§6) thereafter with the assay buffer. Inhibitor and enzyme solutions were preincubated together for 15 min at room temperature prior to assay, in order to allow for the formation of the E−I complex. The inhibition constants were subsequently obtained by nonlinear least-squares
(§7) methods using PRISM 3 and the Cheng−Prusoff equation, as reported earlier, and represent
(§8) the mean from at least three different determinations. All CA isofoms were recombinant ones
(§9) obtained in-house as reported earlier2,3.

hCA XII = hCA XII (Homo sapiens, UniProt O43570); experiment: Stopped-flow CO2 hydrase assay, hCA XII inhibition; details: read-out: Ki (nM) hCA XII, mean from 3 different assays, errors ±5–10%
Chain of hCA XII (O43570 25-354): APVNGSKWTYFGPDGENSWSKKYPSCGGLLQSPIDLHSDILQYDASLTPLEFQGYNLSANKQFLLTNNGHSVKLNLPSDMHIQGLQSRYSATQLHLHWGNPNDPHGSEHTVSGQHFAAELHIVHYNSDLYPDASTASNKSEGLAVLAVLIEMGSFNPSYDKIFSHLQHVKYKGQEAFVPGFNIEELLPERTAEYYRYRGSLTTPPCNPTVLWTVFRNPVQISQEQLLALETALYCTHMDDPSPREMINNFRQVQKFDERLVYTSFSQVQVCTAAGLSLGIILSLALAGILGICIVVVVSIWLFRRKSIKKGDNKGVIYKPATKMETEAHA
Description: as §1, §2, §3, §4, §5, §6, §7, §8, §9

[1] = read-out: Ki (nM) hCA IX, mean from 3 different assays, errors ±5–10%, stopped-flow CO2 hydrase assay

Row | SMILES | Ki (hCA IX; [1]) | melting point | Ki (hCA IX) | Ki (hCA XII)
1 | COc1ccc(/C(=N\O)N2CCN(c3ccc(S(N)(=O)=O)cc3)CC2)cc1 [Compound 31] | 739 nM | 310 to 311 °C | – | –
2 | NS(=O)(=O)c1ccc(N2CCN(C(=NO)c3ccc(Cl)cc3)CC2)cc1 [Compound 30] | – | 321 °C | 43 nM | –
3 | NS(=O)(=O)c1ccc(N2CCN(/C(=N/O)c3ccc(F)cc3)CC2)cc1 [Compound 33] | 1340 nM | 263 °C | – | –
4 | NS(=O)(=O)c1ccc(N2CCN(/C(=N/O)c3ccc([N+](=O)[O-])cc3)CC2)cc1 [Compound 32] | 912 nM | 302 to 303 °C | – | > 10000 nM
5 | NS(=O)(=O)c1ccc(N2CCN(/C(=N/O)c3ccc(O)cc3)CC2)cc1 [Compound 28] | 1180 nM | 320 to 321 °C | – | –
6 | NS(=O)(=O)c1ccc(N2CCN(/C(=N/O)c3ccccc3)CC2)cc1 [Compound 29] | 121 nM | – | – | –
7 | NS(=O)(=O)c1ccc(N2CCN(/C(=N/O)c3ccncc3)CC2)cc1 [Compound 27] | 110 nM | 310 to 311 °C | – | –
8 | Cc1ccc(/C(=N\O)N2CCN(c3ccc(S(N)(=O)=O)cc3)CC2)cc1 [Compound 34] | > 10000 nM | 263 to 264 °C | – | –
